Measurements published in US9029370B2, “Substituted benzamide derivatives” (Hoffmann-La Roche Inc., priority 2011, dated 2015).
Where a name gives a salt, the structure may show the parent alone.

Columns and labels:
mouse TAAR1 = mouse TAAR1 (Mus musculus (Mouse), UniProt Q923Y8); experiment: Radioligand binding assay on mouse TAAR1; conditions: for Ki: mouse TAAR1, HEK-293 membranes, first value of the pair (before the slash), read-out: Ki (μM) mouse/rat
Description: (§1) For the construction of expression plasmids the coding sequences of human, rat and mouse TAAR 1 were amplified from genomic DNA essentially as described by Lindemann et al.. The Expand High Fidelity PCR System (Roche Diagnostics) was used with 1.5 mM Mg^2+ and purified PCR products were cloned into pCR2.1-TOPO cloning vector (Invitrogen) following the instructions of the manufacturer. PCR products were subcloned into the pIRESneo2 vector (BD Clontech, Palo Alto, Calif.), and expression vectors were sequence verified before introduction in cell lines.
(§2) HEK293 cells (ATCC # CRL-1573) were cultured essentially as described by Lindemann et al. (2005). For the generation of stably transfected cell lines HEK293 cells were transfected with the pIRESneo2 expression plasmids containing the TAAR coding sequences (described above) with Lipofectamine 2000 (Invitrogen) according to the instructions of the manufacturer, and 24 hrs post transfection the culture medium was supplemented with 1 mg/ml G418 (Sigma, Buchs, Switzerland). After a culture period of about 10 d clones were isolated, expanded and tested for responsiveness to trace amines (all compounds purchased from Sigma) with the cAMP Biotrak Enzyme immunoassay (EIA) System (Amersham) following the non-acetylation EIA procedure provided by the manufacturer.
Radioligand Binding Assay on Mouse TAAR1
(§3) Membrane Preparation and Radioligand Binding.
(§4) HEK-293 cells stably expressing mouse TAAR1 were maintained at 37° C. and 5% CO2 in DMEM high glucose medium, containing fetal calf serum (10%, heat inactivated for 30 min at 56° C.), penicillin/streptomycin (1%), and 375 μg/ml geneticin (Gibco). Cells were released from culture flasks using trypsin/EDTA, harvested, washed twice with ice-cold PBS (without Ca^2+ and Mg^2+), pelleted at 1′000 rpm for 5 min at 4° C., frozen and stored at −80° C. […] The homogenate was centrifuged at 48′000×g for 30 min at 4° C. Subsequently, the supernatant was removed and discarded, and the pellet resuspended in 20 ml HEPES-NaOH (20 mM, pH 7.4) containing 0.1 mM EDTA using the Polytron (20 s at 14′000 rpm). This procedure was repeated and the final pellet resuspended in HEPES-NaOH containing 0.1 mM EDTA and homogenized using the Polytron. Typically, aliquots of 2 ml membrane portions were stored at −80° C. With each new membrane batch the dissociation constant (Kd) was determined via a saturation curve. […] Nonspecific binding was defined as the amount of ^3[H]-(S)-4-[(ethyl-phenyl-amino)-methyl]-4,5-dihydro-oxazol-2-ylamine bound in the presence of 10 μM unlabeled ligand. All compounds were tested at a broad range of concentrations (10 pM to 10 μM) in duplicates. […] The 96 deep well plates were incubated for 1 hr at 4° C. Incubations were terminated by rapid filtration through Unifilter-96 plates (Packard Instrument Company) and glass filters GF/C (Perkin Elmer) presoaked for 1 hr in polyethylenimine (0.3%) and washed 3 times with 1 ml of cold binding buffer. After addition of 45 μl of Microscint 40 (PerkinElmer) the Unifilter-96 plate was sealed and after 1 hr the ratioactivity counted using a TopCount Microplate Scintillation Counter (Packard Instrument Company).

rat TAAR1 = rat TAAR1 (Rattus norvegicus (Rat), UniProt Q923Y9); experiment: Radioligand binding assay on rat TAAR1; conditions: for Ki: rat TAAR1, HEK-293 membranes, second value of the pair (line below), read-out: Ki (μM) mouse/rat
Description: as §1, §2
Radioligand Binding Assay on Rat TAAR1
as §3
as §4, with “rat” for “mouse”

Sequence of mouse TAAR1 (Q923Y8 whole entry): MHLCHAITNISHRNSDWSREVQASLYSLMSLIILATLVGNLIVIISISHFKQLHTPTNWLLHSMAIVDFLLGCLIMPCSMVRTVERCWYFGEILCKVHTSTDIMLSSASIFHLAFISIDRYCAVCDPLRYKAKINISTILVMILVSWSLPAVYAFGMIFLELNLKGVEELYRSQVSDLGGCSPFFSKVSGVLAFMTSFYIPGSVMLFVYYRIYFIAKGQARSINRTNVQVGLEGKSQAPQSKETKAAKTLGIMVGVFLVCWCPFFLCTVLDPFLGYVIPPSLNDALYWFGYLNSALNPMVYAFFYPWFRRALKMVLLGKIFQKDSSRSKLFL
Sequence of rat TAAR1 (Q923Y9 whole entry): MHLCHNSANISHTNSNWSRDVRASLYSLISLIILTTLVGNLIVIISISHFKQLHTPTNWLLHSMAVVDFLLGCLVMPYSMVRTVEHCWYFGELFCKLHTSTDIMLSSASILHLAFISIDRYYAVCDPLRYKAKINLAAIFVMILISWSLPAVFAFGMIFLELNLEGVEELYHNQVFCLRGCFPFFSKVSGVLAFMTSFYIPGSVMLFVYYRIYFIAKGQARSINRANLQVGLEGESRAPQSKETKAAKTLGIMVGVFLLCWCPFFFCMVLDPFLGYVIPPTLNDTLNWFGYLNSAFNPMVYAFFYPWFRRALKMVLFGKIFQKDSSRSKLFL

| Structure (SMILES) | Ki (mouse TAAR1) [µM] | Ki (rat TAAR1) [µM] | Kd (mouse TAAR1; mouse TAAR1 membranes, saturation curve, usual value, read-out: dissociation constant (Kd) of the radioligand) [nM] | Kd (rat TAAR1; rat TAAR1 membranes, saturation curve, usual value, read-out: dissociation constant (Kd) of the radioligand) [nM] |
| --- | --- | --- | --- | --- |
| O=C(Nc1ccc([C@H]2CNCCO2)cc1F)c1n[nH]c2cc(F)ccc12 [Example 2, 6-Fluoro-1H-indazole-3-carboxylic acid ((S)-2-fluoro-4-morpholin-2-yl-phenyl)-amide] | 0.0012 | 0.0009 | – | – |
| O=C(Nc1ccc([C@H]2CNCCO2)c(F)c1)c1cnn(-c2ccc(C(F)(F)F)nc2)c1 [Example 130, (S)—N-(3-Fluoro-4-(morpholin-2-yl)phenyl)-1-(6-(trifluoromethyl)pyridin-3-yl)-1H-pyrazole-4-carboxamide hydrochloride] | 0.0075 | 0.0038 | – | – |
| CCc1cc(C(=O)Nc2ccc([C@H]3CNCCO3)c(F)c2)cc(C(N)=O)n1 [Example 117, (S)-6-Ethyl-N4-(3-fluoro-4-(morpholin-2-yl)phenyl)pyridine-2,4-dicarboxamide hydrochloride] | 0.0284 | 0.045 | – | – |
| O=C(Nc1ccc([C@@H]2CNCCO2)cc1Cl)c1ccc(Cl)nc1 [Example 35, (R)-6-Chloro-N-(2-chloro-4-(morpholin-2-yl)phenyl)nicotinamide] | 0.0082 | 0.111 | – | – |
| Cc1nc(C(=O)Nc2ccc([C@H]3CNCCO3)c(F)c2)ccc1C#N [Example 136, (S)-5-Cyano-N-(3-fluoro-4-(morpholin-2-yl)phenyl)-6-methylpicolinamide hydrochloride] | 0.0075 | 0.0585 | – | – |
| Cc1cc([C@@H]2CNCCO2)ccc1NC(=O)c1ccc(Cl)nc1 [Example 42, 6-Chloro-N—((R)-2-methyl-4-morpholin-2-yl-phenyl)-nicotinamide] | 0.028 | 3.99 | – | – |
| CCOc1cc(C(=O)Nc2ccc([C@H]3CNCCO3)c(Cl)c2)ccn1 [Example 94, (S)—N-(3-Chloro-4-(morpholin-2-yl)phenyl)-2-ethoxyisonicotinamide hydrochloride] | 0.0033 | 0.0381 | – | – |
| O=C(NCc1cccc(OC(F)F)c1)Nc1ccc([C@@H]2CNCCO2)cc1F [Example 77, (R)-1-(3-(Difluoromethoxy)benzyl)-3-(2-fluoro-4-(morpholin-2-yl)phenyl)urea] | 0.001 | 0.0064 | – | – |
| O=C(Nc1cnc(C(F)(F)F)nc1)Nc1ccc([C@@H]2CNCCO2)cc1Cl [Example 52, 1-((R)-2-Chloro-4-morpholin-2-yl-phenyl)-3-(2-trifluoromethyl-pyrimidin-5-yl)-urea] | 0.0049 | 0.0058 | – | – |
| O=C(Nc1ccc(Cl)cn1)Nc1ccc([C@@H]2CNCCO2)cc1Cl [Example 55, (R)-1-(2-Chloro-4-(morpholin-2-yl)phenyl)-3-(5-chloropyridin-2-yl)urea] | 0.0012 | 0.0014 | – | – |
| COc1ccc(C#N)cc1NC(=O)Nc1ccc([C@H]2CNCCO2)cc1Cl [Example 46, (S)-1-(2-Chloro-4-(morpholin-2-yl)phenyl)-3-(5-cyano-2-methoxyphenyl)urea] | 0.0016 | 0.0064 | – | – |
| Cn1nc(-c2ccccc2)cc1C(=O)Nc1ccc([C@H]2CNCCO2)cc1F [Example 17, 2-Methyl-5-phenyl-2H-pyrazole-3-carboxylic acid ((S)-2-fluoro-4-morpholin-2-yl-phenyl)-amide] | 0.0151 | 0.0128 | – | – |
| COc1ccc(C#N)cc1NC(=O)Nc1ccc([C@@H]2CNCCO2)cc1Cl [Example 45, (R)-1-(2-Chloro-4-(morpholin-2-yl)phenyl)-3-(5-cyano-2-methoxyphenyl)urea] | 0.0023 | 0.0044 | – | – |
| CCOc1ccc(C(=O)Nc2ccc([C@H]3CNCCO3)c(Cl)c2)cn1 [Example 95, (S)—N-(3-Chloro-4-(morpholin-2-yl)phenyl)-6-ethoxynicotinamide hydrochloride] | 0.0033 | 0.035 | – | – |
| O=C(Nc1ccc([C@H]2CNCCO2)c(Cl)c1)c1cnn(-c2ccc(OC(F)F)cc2)c1 [Example 96, (S)—N-(3-Chloro-4-(morpholin-2-yl)phenyl)-1-(4-(difluoromethoxy)phenyl)-1H-pyrazole-4-carboxamide hydrochloride] | 0.0013 | 0.0006 | – | – |
| COc1cc(C(=O)Nc2ccc([C@H]3CNCCO3)cc2F)cc(Cl)n1 [Example 25, 2-Chloro-N—((S)-2-fluoro-4-morpholin-2-yl-phenyl)-6-methoxy-isonicotinamide] | 0.0034 | 0.0127 | – | – |
| O=C(Nc1ccc(Cl)nc1)Nc1ccc([C@H]2CNCCO2)cc1F [Example 9, 1-(6-Chloro-pyridin-3-yl)-3-((S)-2-fluoro-4-morpholin-2-yl-phenyl)-urea] | 0.0017 | 0.0105 | – | – |
| O=C(Nc1ccc([C@H]2CNCCO2)c(F)c1)c1cnn(-c2cncc(C(F)(F)F)n2)c1 [Example 127, (S)—N-(3-Fluoro-4-(morpholin-2-yl)phenyl)-1-(6-(trifluoromethyl)pyrazin-2-yl)-1H-pyrazole-4-carboxamide hydrochloride] | 0.007 | 0.0016 | – | – |
| Cc1cc(C(=O)Nc2ccc([C@H]3CNCCO3)c(Cl)c2)cc(C#N)n1 [Example 112, (S)—N-(3-Chloro-4-(morpholin-2-yl)phenyl)-2-cyano-6-methylisonicotinamide hydrochloride] | 0.0259 | 0.0248 | – | – |
| CCOc1ccc(C(=O)Nc2ccc([C@@H]3CNCCO3)c(F)c2)cn1 [Example 85, (R)-6-Ethoxy-N-(3-fluoro-4-(morpholin-2-yl)phenyl)nicotinamide hydrochloride] | 0.0033 | 0.0067 | – | – |
| O=C(Nc1ccc([C@H]2CNCCO2)cc1Cl)c1ccc(Cl)nc1 [Example 36, (S)-6-Chloro-N-(2-chloro-4-(morpholin-2-yl)phenyl)nicotinamide] | 0.0139 | 0.488 | – | – |
| N#Cc1ccc(-n2cc(C(=O)Nc3ccc([C@H]4CNCCO4)cc3F)cn2)c(F)c1 [Example 110, (S)-1-(4-Cyano-2-fluorophenyl)-N-(2-fluoro-4-(morpholin-2-yl)phenyl)-1H-pyrazole-4-carboxamide hydrochloride] | 0.0088 | 0.0152 | – | – |
| Cc1cc(C(=O)Nc2ccc([C@H]3CNCCO3)cc2F)cc(C(N)=O)n1 [Example 119, (S)—N4-(2-Fluoro-4-(morpholin-2-yl)phenyl)-6-methylpyridine-2,4-dicarboxamide hydrochloride] | 0.0844 | 0.687 | – | – |
| CCN(C[C@H]1COC(N)=N1)c1ccccc1 [^3[H]-(S)-4-[(ethyl-phenyl-amino)-methyl]-4,5-dihydro-oxazol-2-ylamine, reference compound] | – | – | ~0.7 | ~2.3 |
